Measured values reported in publication PMC9824695 (Molecules, 2023).
Entries after “also recorded” stand apart in the source; their conditions may differ. Read-outs that look alike come from different tables or passages of the source.

Legend:
[1] = tested on: male Kunming mice; assay: Carrageenan-induced inflammatory pain; format: in vivo, mouse (Kunming); details: s.c.
[2] = tested on: male Kunming mice; assay: Acetic acid-induced writhing test; format: in vivo, mouse (Kunming); details: 0.6% acetic acid i.p.
Method: An acetic acid-induced writhing test was performed to investigate visceral pain [43]. The increase in intensity of drug analgesia would be accompanied by a decrease in the writhing number. The mice were acclimatized in a transparent acrylic chamber (20 × 20 × 30 cm) for 15–20 min. First, the mice were subcutaneously injected with drugs. Five minutes later, they were intraperitoneally injected with 0.6% acetic acid solution. Within 5–15 min after injecting acetic acid, the number of writhes was recorded. Writhe was defined as a contraction of the abdominal muscles and stretching of the hind limbs.

[3] = tested on: male Kunming mice; assay: Radiant heat tail-flick test; format: in vivo, mouse (Kunming); details: for ED50: Mus musculus, sc
Text: The radiant heat tail-flick test has been widely used as an acute pain model to examine the effects of analgesics. The mice were gently stabilized by hand, and the dorsal surface of the tail, 3 cm from the distal end, was placed on a radiant heat source. The cutoff time was set to 10 s to avoid tissue damage. Radiant heat intensity was adapted to engender a basal latency within 3–5 s in naive mice. Tail-flick latency was defined as the time when the mouse flicked its tail away from the radiant heat source. The data of antinociceptive effects for each animal after treatment were calculated as a percentage of the maximal possible effect (MPE%): MPE (%) = 100 × [(postdrug response − baseline response)/(cutoff response − baseline response)]. The MPE% from each animal was converted to an area under the curve (AUC).
Statistical significance was set at p < 0.05.

[4] = tested on: male Kunming mice; assay: Naloxone-induced withdrawal response (jumping); details: 10 mg/kg s.c.; method: 20, 40, 60, 80, 100, 100, 100 mg/kg every 8 h, naloxone 10 mg/kg
[5] = tested on: male Kunming mice; assay: Gastrointestinal transit test (charcoal meal); format: in vivo, mouse (Kunming); details: 10 mg/kg s.c.; for GIT%: 15 min before charcoal meal, 30 min, p < 0.05, lower = stronger inhibition
Method: The mice were fasted for 16 h with free access to water. Drugs were subcutaneously injected 15 min before the oral administration of a charcoal meal (an aqueous suspension of 5% charcoal and 10% gum arable). Thirty minutes after the oral administration, the animals were sacrificed. The farthest traveled distance by the charcoal meal (L1) and total length of the small intestine (L2) were measured. The GIT inhibition by analgesics was represented by GIT% = (L1/L2) × 100.

[6] = tested on: male Kunming mice; assay: Antinociceptive tolerance (tail-flick, 8 days); details: 10 mg/kg s.c. once a day
[7] = tested on: male Kunming mice; assay: Formalin test; format: in vivo, mouse (Kunming); details: phase I 0–5 min
Method: The formalin test was conducted to explore a characteristic biphasic pain response. The better the analgesic effect in mice, the shorter the average licking/biting/shaking paw time. The mice were acclimated in a transparent plexiglass chamber (20 × 20 × 30 cm) for 15–20 min. First, the mice received a subcutaneous injection of drugs. Five minutes later, 20 μL of 5% formalin was administered by intraplantar injection to the right hind paw. The mice were immediately placed back in the chamber. Simultaneously, the time spent licking, biting, and shaking the injected paw was recorded within 0–5 and 15–30 min.

[8] = tested on: male Kunming mice; assay: Conditioned place preference; format: in vivo, mouse (Kunming); details: 10 mg/kg s.c.
Method: The conditioned place preference experiment is a classical model for evaluating dependence. The device consisted of three compartments. Two large compartments (20 × 20 × 20 cm) were connected by a narrower compartment (5 × 20 × 20 cm). The large compartments were visually and tactually distinct (white walls with rough floors and black walls with smooth floors). Before the unbiased experiment, the mice were allowed to move freely for 15 min to accommodate the apparatus. On the first day, the time the mice spent in each compartment was documented within 15 min. Over the next 3 days, the mice were subcutaneously administered drugs and were limited to one of the two large compartments. Approximately 6 h later, the mice were subcutaneously injected with saline and confined to the opposite compartment. On the fifth day, the mice moved freely for 15 min, and the time spent in the drug-associated preference compartment was recorded. The conditioned place preference score was calculated as: score = time spent in the drug-associated preference compartment on the fifth day − time spent in the same compartment on the first day.

[9] = tested on: male Kunming mice; assay: Acute hyperlocomotion test (open field); details: 10 mg/kg s.c.; 150 min
[10] = tested on: opioid receptors; details: cited from earlier work
[11] = biological target: MOR; details: cited from earlier work
[12] = tested on: mice; design: method as in 2 sources, ref 9 = [9]; PMID 9087409; doi:10.1038/386499a0; 9. Zadina J.E. Hackler L. Ge L.-J. Kastin A.J.J.N. A potent and selective endogenous agonist for the µ-opiate receptor Nature 1997 386 499 502 10.1038/386499a0 9087409 ||| ref 16 = [16]; PMID 31444977; doi:10.1111/bph.14848; 16. Xu B. Zhang M. Shi X. Zhang R. Chen D. Chen Y. Wang Z. Qiu Y. Zhang T. Xu K. The multifunctional peptide DN-9 produced peripherally acting antinociception in inflammatory and neuropathic pain via; details: cited from earlier work
[13] = cited from earlier work
[14] = 15% mouse brain homogenate; cited from earlier work
[15] = biological target: DOR; details: cited from earlier work
[16] = Blood-brain barrier penetration; details: inferred from naloxone methiodide s.c. vs i.c.v. antagonism in mice
[17] = tested on: human sperm; assay: Human sperm motility in vitro; details: 0.0001, 0.001, 0.01, 0.1, 1, or 10 µM, 4-h incubation, 37 °C, n = 5
[18] = biological target: human mu opioid receptor (CHOhMOP) (Homo sapiens, UniProt P35372); assay: cell-based
human mu opioid receptor (CHOhMOP), sequence (P35372 whole entry): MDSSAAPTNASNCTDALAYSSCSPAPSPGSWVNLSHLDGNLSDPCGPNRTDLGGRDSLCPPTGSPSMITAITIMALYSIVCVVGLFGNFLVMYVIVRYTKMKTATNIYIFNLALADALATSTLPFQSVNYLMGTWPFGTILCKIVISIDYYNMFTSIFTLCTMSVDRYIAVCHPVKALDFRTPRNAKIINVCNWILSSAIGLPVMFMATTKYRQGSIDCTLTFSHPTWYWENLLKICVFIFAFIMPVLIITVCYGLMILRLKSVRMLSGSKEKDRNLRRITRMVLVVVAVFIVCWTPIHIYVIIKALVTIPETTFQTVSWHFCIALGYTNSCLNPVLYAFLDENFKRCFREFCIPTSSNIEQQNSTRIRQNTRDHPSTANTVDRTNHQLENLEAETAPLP

[19] = tested on: male Kunming mice; assay: Rotarod test; format: in vivo, mouse (Kunming); details: 10 mg/kg s.c.; compared with saline
[20] = biological target: human delta opioid receptor (CHOhDOP) (Homo sapiens, UniProt P41143); assay: Calcium mobilization assay, CHOhDOP cells
human delta opioid receptor (CHOhDOP), sequence (P41143 whole entry): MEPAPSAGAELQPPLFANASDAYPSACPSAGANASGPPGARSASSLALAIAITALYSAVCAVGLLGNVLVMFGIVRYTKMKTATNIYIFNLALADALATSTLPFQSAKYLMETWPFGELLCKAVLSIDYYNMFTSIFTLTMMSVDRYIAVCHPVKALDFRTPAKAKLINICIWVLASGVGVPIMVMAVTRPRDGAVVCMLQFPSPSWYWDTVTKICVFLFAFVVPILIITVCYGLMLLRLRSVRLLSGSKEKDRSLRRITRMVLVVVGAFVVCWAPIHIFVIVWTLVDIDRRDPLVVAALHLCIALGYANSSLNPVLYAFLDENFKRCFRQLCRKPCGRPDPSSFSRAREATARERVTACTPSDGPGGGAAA

[21] = biological target: KOR; details: cited from earlier work
Text: Table 2 The actions of agonists and antagonists at opioid receptors. | column: Ki^(KOR) (nM)

CN1CC[C@]23c4c5ccc(O)c4O[C@H]2[C@@H](O)C=C[C@H]3[C@H]1C5 [morphine]
duration of anti-allodynic activity ([1]; carrageenan-treated mice): 60 min
time of peak anti-allodynic effect ([1]; post-injection): 30 min
average writhing number ([2]; 1 mg/kg s.c., 5–15 min, mean ± S.E.M., saline 34 ± 2.49): 4.60 ± 2.43
inhibition of writhing response (in words) ([2]; s.c.): inhibited the writhing response
ED50 ([3]; mice, equivalent of the mg/kg value, read-out: antinociceptive ED50 (molar equivalent)): 16.3 µmol/kg
ED50 ([3]; read-out: antinociceptive ED50): 5.24 mg/kg
time of peak tail-flick latency ([3]; s.c., mice): 30 min
withdrawal response [4]: significant withdrawal response; also recorded: significant physical dependence
gastrointestinal transit (in words) [5]: significantly weakened the GIT and exhibited a greater inhibitory effect than HAGD
GIT% [5]: 24.11 ± 3.79%
antinociceptive tolerance [6]: decreased significantly from days 5 to 8; also recorded: produced antinociceptive tolerance in the tail-flick test
formalin test phase I response ([7]; 10 mg/kg s.c., 5% formalin intraplantar, mean ± S.E.M., p < 0.05, lower = better): 67.36 ± 3.93
formalin-induced nociceptive responses, phases I and II (in words) ([7]; s.c., morphine 10 mg/kg, phase II 15–30 min): attenuated nociceptive responses in both phases I and II
conditioned place preference (in words) [8]: significant place preference change
conditioned place preference score ([8]; mean ± S.E.M.): 140.50 ± 43.96
locomotor activity (in words) [9]: enhanced the locomotor activity of mice and significantly increased the total distance traveled compared with saline or HAGD

COC(=O)/C=C/C(=O)N[C@@H]1CC[C@@]2(O)[C@H]3Cc4ccc(O)c5c4[C@@]2(CCN3CC2CC2)[C@H]1O5 [β-funaltrexamine]
Antagonist (receptors) [10]: The inhibition constant (Ki) represented the agonist or antagonist affinity. ^a Drug dosage was in mg/kg (or µmol/kg) for each animal (subcutaneously). ^b β-funaltrexamine binds covalently to MOR. MOR, mu opioid receptor; DOR, delta opioid receptor; KOR, kappa opioid receptor. nM, nmol/L; also recorded: MOR ^b
Ki ([11]; binds covalently to MOR): 0.3 nM

Tyr1-Pro2-Phe3-Phe4-NH2 [endomorphin-2]
antinociception compared with morphine [12]: more potent and prolonged antinociception than morphine in mice
selectivity for MOR [11]: highly selective for MORs

Tyr1-Pro2-Trp3-Phe4-NH2 [endomorphin-1]
BBB crossing ([13]; into the CNS as an analgesic): inability of endomorphin-1 to cross the blood–brain barrier (BBB)
antinociception compared with morphine [12]: more potent and prolonged antinociception than morphine in mice
half-life in brain homogenate [14]: 0.3923 ± 0.00417 h
selectivity for MOR [11]: highly selective for MORs

Oc1ccc2c3c1O[C@H]1c4[nH]c5ccccc5c4C[C@@]4(O)[C@@H](C2)N(CC2CC2)CC[C@]314 [naltrindole]
Antagonist (receptors) [10]: DOR
Ki [15]: 0.02 nM

C[C@@H](NC(=O)[C@@H](N)Cc1ccc(O)cc1)C(=O)NCC(=O)N[C@@H](Cc1ccccc1)C(N)=O [HAGD, H-Tyr-D-AIa-GIy-Phe-NH2]
BBB permeability [16]: poor BBB permeability; also recorded: poor ability of HAGD to penetrate the BBB into the CNS
sperm progressive motility (PR), HAGD (in words) [17]: did not produce significant changes in sperm PR; also recorded: did not have a significant negative effect on human sperm motility
Emax [18]: 103 ± 1.58%
EC50 ([18]; CHOhMOP, duplicate, repeated at least three times): 81.7 nM
withdrawal response [4]: significant withdrawal response; also recorded: significant physical dependence
endurance time on rotating rod (in words) [19]: no significant difference in the endurance time
gastrointestinal transit (in words) [5]: significant delay compared with saline
GIT% [5]: 44.83 ± 4.14%
antinociceptive tolerance [6]: non-tolerance antinociception for 8 consecutive days; also recorded: non-tolerance antinociception for eight consecutive days
half-life in brain homogenate [14]: 4.3288 ± 0.6835 h
EC50 [20]: 2630 nM
Emax ([20]; read-out: Emax ± S.E.M.): 110 ± 7.21%
conditioned place preference (in words) [8]: did not induce a place preference change; also recorded: substantial difference in the conditioned place preference scores between the HAGD and morphine groups
locomotor activity (in words) [9]: did not show an apparent effect on locomotion compared with saline

Oc1ccc2c3c1O[C@H]1c4[nH]c5c(c4C[C@@]4(O)[C@@H](C2)N(CC2CC2)CC[C@]314)C[C@@]1(O)[C@H]2Cc3ccc(O)c4c3[C@@]1(CCN2CC1CC1)[C@H]5O4 [nor-binaltorphimine]
Antagonist (receptors) [10]: KOR

C=CC[N+]1(C)CC[C@]23c4c5ccc(O)c4O[C@H]2C(=O)CC[C@@]3(O)[C@H]1C5 (stereo partly shown) [naloxone methiodide]
Antagonist (receptors) [10]: MOR DOR KOR
peripheral restriction ([13]; opioid receptor antagonist): peripherally restricted
Ki [21]: 204 nM
Ki [11]: 28.9 nM
Ki [15]: 1010 nM
